In US20160183527A1, “FUNGICIDAL COMPOSITIONS” (Dow AgroSciences LLC, priority 2014, published 2016):

What was measured:
Type in all cases: physicochemical
[1] = Solubility of Compound A and prothioconazole in benzyl acetate/AMD810 blends at 10° C. (HPLC); conditions: both actives saturated
Procedure: A study of the Compound A and prothioconazole solubility in blends of benzyl acetate/AMD810 was conducted. To each solvent blend both actives were added until each was saturated and the resulting mixtures were then stored at 10° C. until equilibrium was obtained. Aliquots of the supernatant layer were taken from each sample, filtered (0.45 μm mesh) and analyzed by HPLC to determine the solution concentration of each active in the blends.

[2] = Accelerated storage stability, 54° C. for 2 weeks (HPLC); conditions: 2 weeks at 54° C.
Procedure: Sample 1 was stored at 54° C. for 2 weeks in a closed container.
Sample 6 was stored at 54° C. for 2 weeks in a closed container.
Sample 7 was stored at 54° C. for 2 weeks in a closed container.

[3] = Approximate (relative) solubility of active ingredients in organic solvents at ambient temperature; conditions: 0.2 g of Compound A mixed with 1.38 g of cyclohexanone
Procedure: The approximate solubility of Compound A was determined by mixing a known mass of the active ingredient with an increasing mass of each solvent at ambient temperature. […] The solubility of Compound A in the solvents used in this screening procedure was generally classified within the following concentration ranges: […]

COc1ccnc(C(=O)N[C@H]2COC(=O)[C@H](Cc3ccccc3)[C@@H](OC(=O)C(C)C)[C@H](C)OC2=O)c1OCOC(=O)C(C)C [Compound A, propanoic acid, 2-methyl-, [[4-methoxy-2-[[[(3S,7R,8R,9S)-9-methyl-8-(2-methyl-1-oxopropoxy)-2,6-dioxo-7-(phenylmethyl)-1,5-dioxonan-3-yl]amino]carbonyl]-3-pyridinyl]oxy]methyl ester]
Compound A Solubility at 10° C. ([1]; benzyl acetate 0 wt % in benzyl acetate/AMD810 blend): 3.3 % w/w
Compound A Solubility at 10° C. ([1]; benzyl acetate 20 wt % in benzyl acetate/AMD810 blend): 4.3 % w/w
Compound A Solubility at 10° C. ([1]; benzyl acetate 40 wt % in benzyl acetate/AMD810 blend): 6.5 % w/w
Compound A Solubility at 10° C. ([1]; benzyl acetate 60 wt % in benzyl acetate/AMD810 blend): 11.0 % w/w
Compound A Solubility at 10° C. ([1]; benzyl acetate 80 wt % in benzyl acetate/AMD810 blend): 12.0 % w/w
Compound A after Storage (% retention) ([2]; composition wt %: Compound A 3.4, AMD 810 96.0, third solvent none): 49^ % retention
Compound A after Storage (% retention) ([2]; composition wt %: Compound A 4.9, benzyl acetate 94.1, third solvent none): 85^ % retention
Compound A after Storage (% retention) ([2]; composition wt %: Compound A 12.0, cyclohexanone 85.7): 96^ % retention
Compound A after Storage (% retention) ([2]; wt %: Compound A 4.9, pyraclostrobin 6.3, benzyl acetate 41.2, AMD 810 22.2, cyclohexanone 9.8): 98^ % retention
Compound A after Storage (% retention) ([2]; wt %: Compound A 5.0, pyraclostrobin 6.4, benzyl acetate 40.9, AMD 810 22.0, 2-ethyl hexanol 10.0): 95^ % retention
Compound A after Storage (% retention) ([2]; wt %: Compound A 7.7, pyraclostrobin 9.8, benzyl acetate 37.1, AMD 810 20.0, cyclohexanone 9.6): 97^ % retention
Compound A after Storage (% retention) ([2]; wt %: Compound A 7.8, pyraclostrobin 9.9, benzyl acetate 36.7, AMD 810 19.8, 2-ethyl hexanol 9.7): 97^ % retention
Compound A content of clear solution in cyclohexanone [3]: 12.6 % w/w
